Consider one molecule from patent US11684593B2 (GENEHEAL BIOTECHNOLOGY CO., LTD., priority 2017, dated 2023).

Assay [1] concerns the target PAICS (Homo sapiens, UniProt P22234).
The subject of assay [2] is oncogene myc. The note with it: Western Blot, FIG. 4. For orientation: A western blot detects proteins with antibodies after separation by electrophoresis.
The subject of assay [3] is lung cancer cell strain A549. In words: cells. The note with it: Homo sapiens, A549, 48 h.
In assay [4] the test system is lung cancer cell strain H1299. The assay can be described thus: cells. The note with it: Homo sapiens, NCI-H1299, 48 h.
Assay [5] has as its system breast cancer cell strain MD468. The assay can be described thus: cells. The note with it: 48 h.
Assay [6] concerns breast cancer cell strain MD231. The assay can be described thus: cells. The note with it: 48 h.

PAICS, sequence (P22234 whole entry): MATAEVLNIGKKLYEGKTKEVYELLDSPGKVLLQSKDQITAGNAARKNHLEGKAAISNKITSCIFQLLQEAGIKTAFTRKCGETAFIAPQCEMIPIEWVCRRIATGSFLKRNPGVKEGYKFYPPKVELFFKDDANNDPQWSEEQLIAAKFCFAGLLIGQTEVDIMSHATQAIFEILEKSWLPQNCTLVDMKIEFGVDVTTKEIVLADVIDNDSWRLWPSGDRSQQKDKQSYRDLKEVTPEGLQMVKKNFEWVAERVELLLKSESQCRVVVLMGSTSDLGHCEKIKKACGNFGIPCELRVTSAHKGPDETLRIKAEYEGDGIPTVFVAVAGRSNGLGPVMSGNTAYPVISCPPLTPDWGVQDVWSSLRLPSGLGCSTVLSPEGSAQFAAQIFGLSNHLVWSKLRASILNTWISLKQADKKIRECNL

As for `NCCCNCCCCNCCCN` [spermine], in assay [1], the “inhibition of the accumulation of SAICAR” value was “up to 71.1%”. In assay [2], the “expression of oncogene myc” value is listed as “significantly down-regulated”. For the same molecule, the IC50 (as a rule, the concentration at which inhibition is half-maximal) in assay [3] stood at 117 µM; in assay [4], 25.2 µM; in assay [5], 38 µM; in assay [6] it was 3.55 µM.
